Test results taken from PubChem BioAssay AID330 (DTP/NCI, 2004).
Values joined by “and” are separate entries in the source; they are usually repeats but may differ in a detail not shown here. Equal entries are not always repeated. Inconclusive results and toxic doses are left out.

System: P388 leukemia ip, CD2F1 mice, survival T/C
Assay: NCI In Vivo Anticancer Drug Screen. Data for tumor model P388 Leukemia (intraperitoneal) in CD2F1 (CDF1) mice
Conditions: endpoint: median survival time, higher = longer survival
Summary of the method: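 Mice carrying the transplanted tumor received test compound or vehicle. Survival was recorded in each group, and the value is the treated-group measurement divided by that of the vehicle-treated control group.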

[1] = dose: 100.0 mg/kg/injection, schedule: Q01DX009 (ip), vehicle: saline with Tween-80
[2] = dose: 200.0 mg/kg/injection, schedule: Q01DX009 (ip), vehicle: saline with Tween-80
[3] = dose: 50.0 mg/kg/injection, schedule: Q01DX009 (ip), vehicle: saline with Tween-80
[4] = dose: 50.0 mg/kg/injection, schedule: Q01DX005 (ip), vehicle: saline with Tween-80
[5] = dose: 100.0 mg/kg/injection, schedule: Q01DX005 (ip), vehicle: saline with Tween-80
[6] = dose: 50.0 mg/kg/injection, schedule: Q01DX005 (ip), vehicle: Klucel (hydroxypropylcellulose) (HPC)

CN(C)S(=O)(=O)c1ncnc2nc[nH]c12
T/C [1]: 90 % of control | T/C (dose: 100.0 mg/kg/injection, schedule: Q04DX003 (ip), vehicle: saline sonified): 100 % of control | T/C [2]: 90 % of control | T/C (dose: 200.0 mg/kg/injection, schedule: Q04DX003 (ip), vehicle: saline sonified): 91 % of control | T/C (dose: 400.0 mg/kg/injection, schedule: Q01DX009 (ip), vehicle: saline with Tween-80): 100 % of control | T/C (dose: 400.0 mg/kg/injection, schedule: Q04DX003 (ip), vehicle: saline sonified): 91 % of control

C=CC[N+](CCO)(CCO)CCCCCCCCCCCCCCCCCC
T/C (dose: 6.25 mg/kg/injection, schedule: Q01DX009 (ip), vehicle: saline with Tween-80): 114 % of control | T/C (dose: 12.5 mg/kg/injection, schedule: Q01DX009 (ip), vehicle: saline with Tween-80): 108 % of control

CC1(C)OCC(C2OC3OC(C)(C)OC3C2OP(=O)(N2CC2)N2CC2)O1 (centres undefined)
T/C [3]: 112 % of control | T/C [1]: 105 % of control

N#CCc1ccccc1Br
T/C [4]: 93 % of control | T/C [5]: 101 % of control

CCC(c1ccc(OC)cc1)C(NCC(=O)N/N=C/c1ccc(O)c(OC)c1)c1ccc(OC)cc1 (centres undefined)
T/C (dose: 100.0 mg/kg/injection, schedule: Q01DX001 (ip), vehicle: saline with Tween-80): 107 % of control | T/C (dose: 200.0 mg/kg/injection, schedule: Q01DX001 (ip), vehicle: saline with Tween-80): 107 % of control | T/C (dose: 400.0 mg/kg/injection, schedule: Q01DX001 (ip), vehicle: saline with Tween-80): 101 % of control

C=C(C)[C@H]1Cc2c(ccc3c2O[C@@H]2COc4cc(OC)c(OC)cc4[C@@H]2C3=O)O1
T/C (dose: 1.5 mg/kg/injection, schedule: Q01DX009 (ip), vehicle: saline with Tween-80): 110 % of control | T/C (dose: 1.5 mg/kg/injection, schedule: Q04DX003 (ip), vehicle: saline with Tween-80): 100 % of control | T/C (dose: 3.0 mg/kg/injection, schedule: Q01DX009 (ip), vehicle: saline with Tween-80): 115 % of control | T/C (dose: 3.0 mg/kg/injection, schedule: Q04DX003 (ip), vehicle: saline with Tween-80): 100 % of control | T/C (dose: 6.0 mg/kg/injection, schedule: Q01DX009 (ip), vehicle: saline with Tween-80): 120 % of control | T/C (dose: 6.0 mg/kg/injection, schedule: Q04DX003 (ip), vehicle: saline with Tween-80): 104 % of control | T/C (dose: 12.5 mg/kg/injection, schedule: Q01DX001 (ip), vehicle: saline with Tween-80): 110 % of control | T/C (dose: 25.0 mg/kg/injection, schedule: Q01DX001 (ip), vehicle: saline with Tween-80): 114 % of control | T/C (dose: 50.0 mg/kg/injection, schedule: Q01DX001 (ip), vehicle: saline with Tween-80): 112 % of control

CCCCN(CCCC)CC1CC(C(C)(C)C)CCC1O (centres undefined)
T/C [6]: 91 % of control | T/C (dose: 100.0 mg/kg/injection, schedule: Q01DX005 (ip), vehicle: Klucel (hydroxypropylcellulose) (HPC)): 91 % of control

CC(C)(CCl)C(=O)NN=C(c1ccccc1)c1ccccc1
T/C [3]: 107 % of control | T/C [1]: 107 % of control | T/C [2]: 110 % of control

CC(N)=S=O
T/C (dose: 15.0 mg/kg/injection, schedule: Q01DX005 (ip), vehicle: saline): 112 % of control | T/C (dose: 30.0 mg/kg/injection, schedule: Q01DX005 (ip), vehicle: saline): 103 % of control | T/C (dose: 60.0 mg/kg/injection, schedule: Q01DX005 (ip), vehicle: saline): 106 % of control and 94 % of control

Clc1cccc(-c2nc3ccccc3c3ccccc23)c1
T/C (dose: 100.0 mg/kg/injection, schedule: Q04DX003 (ip), vehicle: saline with Tween-80): 100 % of control | T/C (dose: 200.0 mg/kg/injection, schedule: Q04DX003 (ip), vehicle: saline with Tween-80): 90 % of control | T/C (dose: 400.0 mg/kg/injection, schedule: Q04DX003 (ip), vehicle: saline with Tween-80): 90 % of control

c1ccc2c(c1)[nH]c1nc3ccncc3nc12
T/C [3]: 90 % of control | T/C [1]: 90 % of control

Cc1cccc(C)c1OC(=S)SSC(=S)Oc1c(C)cccc1C
T/C (dose: 100.0 mg/kg/injection, schedule: Q01DX001 (ip), vehicle: Klucel (hydroxypropylcellulose) (HPC)): 94 % of control | T/C (dose: 200.0 mg/kg/injection, schedule: Q01DX001 (ip), vehicle: Klucel (hydroxypropylcellulose) (HPC)): 87 % of control

CC(=O)Oc1ccc(N2C(=O)C3C(C2=O)C2c4ccccc4C3C3CCCCN32)cc1 (centres undefined) (tested in a mixture with another compound)
T/C (dose: 6.25 mg/kg/injection, schedule: Q01DX009 (ip), vehicle: water): 101 % of control | T/C (dose: 12.5 mg/kg/injection, schedule: Q01DX009 (ip), vehicle: water): 111 % of control | T/C (dose: 25.0 mg/kg/injection, schedule: Q01DX009 (ip), vehicle: water): 104 % of control | T/C (dose: 50.0 mg/kg/injection, schedule: Q01DX009 (ip), vehicle: water): 102 % of control | T/C (dose: 100.0 mg/kg/injection, schedule: Q01DX009 (ip), vehicle: water): 104 % of control

O=NN(CCCl)C(=O)NC1CCN(Cc2ccccc2)CC1
T/C (dose: 12.5 mg/kg/injection, schedule: Q04DX003 (ip), vehicle: other): 154 % of control | T/C (dose: 12.5 mg/kg/injection, schedule: Q04DX003 (ip), vehicle: water): 184 % of control | T/C (dose: 25.0 mg/kg/injection, schedule: Q04DX003 (ip), vehicle: other): 183 % of control | T/C (dose: 25.0 mg/kg/injection, schedule: Q04DX003 (ip), vehicle: water): 225 % of control | T/C (dose: 50.0 mg/kg/injection, schedule: Q04DX003 (ip), vehicle: other): 287 % of control | T/C (dose: 50.0 mg/kg/injection, schedule: Q04DX003 (ip), vehicle: water): 281 % of control | T/C (dose: 100.0 mg/kg/injection, schedule: Q04DX003 (ip), vehicle: other): 361 % of control

CCOc1cc(/C=N\Nc2nnc(C)n2N)c(C)cc1N(CCCl)CCCl
T/C (dose: 0.22 mg/kg/injection, schedule: Q01DX009 (ip), vehicle: saline with Tween-80): 110 % of control | T/C (dose: 0.33 mg/kg/injection, schedule: Q01DX009 (ip), vehicle: saline with Tween-80): 105 % of control | T/C (dose: 0.5 mg/kg/injection, schedule: Q01DX009 (ip), vehicle: saline with Tween-80): 110 % of control | T/C (dose: 0.75 mg/kg/injection, schedule: Q01DX009 (ip), vehicle: saline with Tween-80): 120 % of control | T/C (dose: 1.25 mg/kg/injection, schedule: Q04DX003 (ip), vehicle: saline): 100 % of control | T/C (dose: 2.0 mg/kg/injection, schedule: Q01DX009 (ip), vehicle: saline with Tween-80): 160 % of control | T/C (dose: 2.5 mg/kg/injection, schedule: Q04DX003 (ip), vehicle: saline): 100 % of control | T/C (dose: 4.0 mg/kg/injection, schedule: Q01DX009 (ip), vehicle: saline with Tween-80): 185 % of control | T/C (dose: 5.0 mg/kg/injection, schedule: Q04DX003 (ip), vehicle: saline): 103 % of control

CNC(=O)OCc1c(COC(=O)NC)c(-c2ccccc2)n(-c2ccccc2)c1C
T/C (dose: 12.5 mg/kg/injection, schedule: Q01DX005 (ip), vehicle: saline with Tween-80): 150 % of control | T/C (dose: 25.0 mg/kg/injection, schedule: Q01DX005 (ip), vehicle: saline with Tween-80): 169 % of control | T/C [4]: 157 % of control and 176 % of control | T/C [5]: 118 % of control

Cc1[nH]nc2c(Cc3ccc([N+](=O)[O-])cc3)n[nH]c(=O)c12
T/C (dose: 100.0 mg/kg/injection, schedule: Q04DX002 (ip), vehicle: Klucel (hydroxypropylcellulose) (HPC)): 92 % of control | T/C (dose: 200.0 mg/kg/injection, schedule: Q04DX002 (ip), vehicle: Klucel (hydroxypropylcellulose) (HPC)): 87 % of control | T/C (dose: 400.0 mg/kg/injection, schedule: Q04DX002 (ip), vehicle: Klucel (hydroxypropylcellulose) (HPC)): 92 % of control

CCCCCCCOc1cccc(OCCCC[N+]2(CC)CCCCC2)c1
T/C (dose: 1.56 mg/kg/injection, schedule: Q01DX009 (ip), vehicle: saline): 97 % of control | T/C (dose: 3.12 mg/kg/injection, schedule: Q01DX009 (ip), vehicle: saline): 100 % of control | T/C (dose: 6.25 mg/kg/injection, schedule: Q01DX009 (ip), vehicle: saline): 100 % of control

Cc1c(O)c(O)cc[n+]1C1OC(CO)C(O)C1O (centres undefined)
T/C (dose: 100.0 mg/kg/injection, schedule: Q01DX005 (ip), vehicle: saline): 98 % of control | T/C (dose: 200.0 mg/kg/injection, schedule: Q01DX005 (ip), vehicle: saline): 100 % of control | T/C (dose: 400.0 mg/kg/injection, schedule: Q01DX005 (ip), vehicle: saline): 102 % of control

CCN(C)N=Nc1ccc(C(N)=O)cc1
T/C (dose: 25.0 mg/kg/injection, schedule: Q01DX005 (ip), vehicle: Klucel (hydroxypropylcellulose) (HPC)): 101 % of control and 105 % of control | T/C [6]: 95 % of control | T/C (dose: 200.0 mg/kg/injection, schedule: Q01DX005 (ip), vehicle: Klucel (hydroxypropylcellulose) (HPC)): 89 % of control

COc1ccc2ccc3nonc3c2c1
T/C [4]: 92 % of control | T/C [5]: 99 % of control | T/C (dose: 200.0 mg/kg/injection, schedule: Q01DX005 (ip), vehicle: saline with Tween-80): 91 % of control
